Experimental findings from publication PMC11672562, “Synthesis and Antibacterial Activity of New 6″-Modified Tobramycin Derivatives” (Antibiotics, 2024) are described below.

Molecules are shown by their SMILES. Values after ≈ are worked out from the molar mass of the structure shown.

Format in all cases: cell-based
Test [1] has as its system E. coli JW5503 kanS EF-G P610T. In words: MIC in LB medium, aminoglycoside-resistant mutant EF-G P610T. As to conditions: Escherichia coli, 18 h. How it is done:
(§1) The determination of the minimum inhibitory concentration (MIC) was performed on three strains from the working collection of MSU: E. coli JW5503 [34], which lacked a kanamycin resistance cassette removed as per the method outlined in [39], and two strains derived from this strain through in vivo selection with kanamycin. The latter strains harbored P610T and P610L substitutions in the fusA gene. For the MIC determination, 100 μL (rows 2–11) and 200 μL (row 1) of LB liquid medium containing a 1:1000 dilution of overnight culture was added to each well of a 96-well transparent plate. Subsequently, 2 μL of a 50 μg/mL antibiotic solution was introduced into the first row, and serial two-fold dilutions were performed across each horizontal row, decreasing the antibiotic concentration incrementally. The final two rows were designated as controls: row 12 contained LB medium without cells or antibiotics, and row 11 contained cells without antibiotics. Following 18 h of incubation at 37 °C with constant agitation, the optical density at 590 nm (A590) was measured using a Victor X5 2030 spectrofluorometer (PerkinElmer, Waltham, MA, USA). The MIC was defined as the antibiotic concentration in the first well where no cell growth occurred. Each experiment was conducted in triplicate for all tested antibiotics.

Another test deals with S. aureus ATCC 29213. In words: MIC, broth microdilution, S. aureus ATCC 29213. Conditions: Staphylococcus aureus, ATCC29213, Table 1, read-out: MIC. Here is the method: The microbial strains used in this study were obtained from the collection of the Gause Institute of New Antibiotics. […] Storage was carried out in accordance with CLSI guidelines. Prior to experimentation, the bacterial strains were revived from cryopreservation by inoculating them onto trypticase soy agar (Becton, Dickinson, France) and incubating at (36 ± 1) °C for 16–24 h. Individual morphologically homogeneous colonies were then suspended in sterile physiological saline, and the turbidity of the suspension was adjusted to 0.5 McFarland units using a DEN-1 spectrophotometer (Biosan, Riga, Latvia), which corresponds to a concentration of 1.5 × 10^8 CFU/mL.
The samples were dissolved in sterile distilled water or dimethyl sulfoxide (DMSO), depending on the physicochemical properties of the compounds under investigation, to a concentration of 10,000 µg/mL.
Activity was evaluated by determining the minimum inhibitory concentration (MIC) values using the microdilution method in Mueller–Hinton Broth (Beckton and Dickinson, Le Pont-de-Claix, France), in accordance with the standard procedure for assessing the antimicrobial susceptibility of microorganisms.
The analysis was conducted in 96-well microtiter plates (Medpolymer, Saint Petersburg, Russia). The bacterial inoculum was introduced within 15 min of preparation. […] Microbial growth in the presence of the tested compounds was compared to the growth control (without exposure to the test samples). The MIC was defined as the lowest concentration at which visible microbial growth was inhibited.
The MIC values of the reference strains were required to fall within the acceptable ranges specified in [30], provided that standard assay conditions were maintained.
On the technique in general: Broth dilution looks for growth in wells or tubes with falling amounts of substance.

Test [2] relates to E. coli JW5503 kanS EF-G P610L. In words: MIC in LB medium, aminoglycoside-resistant mutant EF-G P610L. As to conditions: Escherichia coli, 18 h. Here is the method: as §1
Another test relates to E. coli JW5503 kanS. The test is described as follows: MIC in LB medium, E. coli JW5503 kanS. Conditions: Escherichia coli, JW5503KANS, 18 h. Here is the method: as §1

For orientation: MIC means the smallest concentration in the dilution series that meets the test's criterion for growth inhibition. `NCCNC[C@H]1O[C@H](O[C@@H]2[C@@H](O)[C@H](O[C@H]3O[C@H](CN)[C@@H](O)C[C@H]3N)[C@@H](N)C[C@H]2N)[C@H](O)[C@@H](N)[C@@H]1O` [Compound 4a, 6″-(2-Aminoethyamino)-6″-deoxytobramycin acetate]: the MIC turned out to be 40 mg/L in test [1], 0.125 mg/L in the test on S. aureus ATCC 29213, 40 mg/L in test [2] and 10 mg/L against E. coli JW5503 kanS.

Turning to `NCCCNC[C@H]1O[C@H](O[C@@H]2[C@@H](O)[C@H](O[C@H]3O[C@H](CN)[C@@H](O)C[C@H]3N)[C@@H](N)C[C@H]2N)[C@H](O)[C@@H](N)[C@@H]1O` [Compound 4b, 6″-(3-Aminopropyl-1-amino)-6″-deoxytobramycin acetate], the MIC in test [1] was 80 mg/L; in the test on S. aureus ATCC 29213, 0.125 mg/L; in test [2], 80 mg/L; in the test with E. coli JW5503 kanS, 20 mg/L.

As to `N=C(N)NCCNC[C@H]1O[C@H](O[C@@H]2[C@@H](O)[C@H](O[C@H]3O[C@H](CN)[C@@H](O)C[C@H]3N)[C@@H](N)C[C@H]2N)[C@H](O)[C@@H](N)[C@@H]1O` [Compound 6a, 6″-(2-Guanidinoethylamino)-6″-deoxytobramycin acetate], the MIC was found to be 40 mg/L in test [1], 0.125 mg/L in the test with S. aureus ATCC 29213, 40 mg/L in test [2] and 10 mg/L with E. coli JW5503 kanS.

As for `N=C(N)NCCCNC[C@H]1O[C@H](O[C@@H]2[C@@H](O)[C@H](O[C@H]3O[C@H](CN)[C@@H](O)C[C@H]3N)[C@@H](N)C[C@H]2N)[C@H](O)[C@@H](N)[C@@H]1O` [Compound 6b, 6″-(3-Guanidinopropyl-1-amino)-6″-deoxytobramycin acetate], the MIC was determined as 80 mg/L in test [1], 0.5 mg/L in the test with S. aureus ATCC 29213, 80 mg/L in test [2] and 40 mg/L in the test with E. coli JW5503 kanS.

For the compound `NC[C@H]1O[C@H](O[C@H]2[C@H](O)[C@@H](O[C@H]3O[C@H](CO)[C@@H](O)[C@H](N)[C@H]3O)[C@H](N)C[C@@H]2N)[C@H](N)C[C@@H]1O` [Tobramycin, tobramycin], the MIC in test [1] turned out to be 20 mg/L (≈ 42.8 µM); in the test on S. aureus ATCC 29213 it was 0.06 mg/L (≈ 0.128 µM); in test [2], 40 mg/L (≈ 85.6 µM); against E. coli JW5503 kanS, 5 mg/L (≈ 10.7 µM).
